From ChEMBL document CHEMBL1144132, “Dihydrochalcones and flavonolignans from Iryanthera lancifolia” (J Nat Prod, 1999)

Test: Antioxidant activity in brain homogenate assessed as drug level require to inhibit 50% of spontaneous lipid peroxidation relative to control
Type: functional, tissue-based

| SMILES | Activity [µg/mL] |
| --- | --- |
| COc1ccc(CCC(=O)c2c(OC)cc(O)c([C@@H](c3ccc(O)cc3)[C@@H](C)[C@H](C)Cc3ccc(O)cc3)c2O)cc1 (relative stereo) | 5.5 |
| COc1ccc(CCC(=O)c2c(O)cc(O)cc2OC)cc1 | 6.9 |
| O=c1c(O)c(-c2ccc(O)c(O)c2)oc2cc(O)cc(O)c12 | 7.6 |
| COc1ccc(CCC(=O)c2c(OC)cc(O)c([C@H](c3ccc(O)cc3)[C@@H](C)[C@H](C)Cc3ccc(O)cc3)c2O)cc1 (relative stereo) | 4.8 |
| Cc1c(C)c2c(c(C)c1O)CC[C@@](C)(CCC[C@H](C)CCC[C@H](C)CCCC(C)C)O2 | 12.1 |
| COc1cc(O)c(C(=O)CCc2ccc(O)cc2)c(OC)c1 | 4.7 |
